Laboratory results as given in ChEMBL document CHEMBL5113486, “Hit-to-lead optimization of novel phenyl imidazole carboxamides that are active against Leishmania donovani” (Eur J Med Chem, 2022).
Converted amounts (≈) assume the structure as drawn.

Assays:
[1] = Solubility of the compound in DMSO; assay type: physicochemical
[2] = Selectivity index, ratio of CC50 for cytotoxicity against human THP-1 cells to IC50 for antileishmanial activity against Leishmania donovani infected in human THP-1 cells; assay type: toxicity, cell-based; settings: read-out: Ratio CC50/IC50
Leishmania donovani [3] = experiment: Antileishmanial activity against Leishmania donovani infected in human THP-1 cells assessed as growth inhibition by intramacrophage assay; assay type: functional, organism-based
Leishmania donovani [4] = experiment: Antileishmanial activity against Leishmania donovani infected in human THP-1 cells assessed as growth inhibition at 100 uM by intramacrophage assay; assay type: functional; set-up: scale not given: the % may be the effect or the level left
[5] = Cytotoxicity against human HepG2 cells assessed as cell growth inhibition at 100 uM; assay type: toxicity, cell-based; settings: read-out: Activity
[6] = Cytotoxicity against human THP-1 cells assessed as cell growth inhibition; assay type: toxicity, cell-based
[7] = Kinetic solubility of the compound at pH 2.0 by nephelometry; assay type: physicochemical; settings: buffer, read-out: Kinetic_solubility
HepG2 [8] = experiment: Mitotoxicity in human HepG2 cells assessed as reduction in metabolic activity under galactose containing medium by crabtree effect assay; assay type: toxicity, cell-based
HepG2 [9] = experiment: (§1) Cytotoxicity against human HepG2 cells assessed as inhibition of cell growth under glucose containing medium by crabtree effect assay; assay type: toxicity, cell-based; settings: hepg2
[10] = Metabolic stability in human liver microsomes assessed as intrinsic clearance measured per mg protein; assay type: ADME, Microsome; settings: read-out: CLH
HepG2 [11] = experiment: Cytotoxicity against human HepG2 cells assessed as inhibition of cell growth under galactose containing medium by crabtree effect assay; assay type: toxicity, cell-based
[12] = Drug degradation in human liver microsomes; assay type: ADME, Microsome; settings: read-out: Drug degradation
HepG2 [13] = experiment: Mitotoxicity in human HepG2 cells assessed as reduction in metabolic activity under glucose containing medium by crabtree effect assay; assay type: toxicity, cell-based
[14] = Metabolic stability in mouse liver microsomes assessed as half life; assay type: ADME, Microsome
[15] = Metabolic stability in mouse liver microsomes assessed as intrinsic clearance measured per mg protein; assay type: ADME, Microsome; settings: read-out: CLH
[16] = Kinetic solubility of the compound at pH 6.5 by nephelometry; assay type: physicochemical; settings: buffer, read-out: Kinetic_solubility
[17] = Metabolic stability in human liver microsomes assessed as half-life; assay type: ADME, Microsome
[18] = Cytotoxicity against human HepG2 cells assessed as cell growth inhibition; assay type: toxicity, cell-based
Leishmania donovani [19] = experiment: Antileishmanial activity against Leishmania donovani axenic amastigotes assessed as growth inhibition by fluorescence intensity readout assay; assay type: functional, organism-based
[20] = Lipophilicity, log P of the compound; assay type: physicochemical; settings: octanol/water
[21] = Solubility of the compound upto 800 uM; assay type: physicochemical
[22] = Metabolic stability in mouse liver microsomes assessed as half life measured at 2 to 5 mins; assay type: ADME, Microsome; settings: time 2-5 min
[23] = Metabolic stability in mouse liver microsomes assessed as intrinsic clearance measured per mg protein at 2 to 5 mins; assay type: ADME, Microsome; settings: time 2-5 min, read-out: CLH
[24] = Stability in mouse liver microsomes assessed as parent compound remaining measured at 2 mins; assay type: ADME, Microsome
[25] = as §1; assay type: toxicity, cell-based; settings: HepG2 cells

Structure (SMILES) | selectivity ratio [2] | IC50 (Leishmania donovani [3]) | Activity (Leishmania donovani [4]) | inhibition at 100 µM [5] | CC50 [6] | other results
COc1ccc(-c2cnc(NC(=O)C3CCCCC3)n2C)cc1 | > 1 | > 100 µM | <50% | < 50% | > 100 µM | solubility [1]: Insoluble
Cn1c(-c2ccccc2F)cnc1NC(=O)c1ccc(F)cc1 | > 1 | > 100 µM | <50% | < 50% | > 100 µM | –
Cn1c(-c2ccc(Cl)cc2)cnc1NC(=O)c1ncc[nH]1 | 100 | 0.52 µM | – | – | 52 µM | solubility kinetic [7]: 50 µg/mL (≈ 166 µM); Activity (HepG2 [8]): Non-Toxic; Activity (HepG2 [9]): Non-Toxic; microsomal CLint [10]: < 7 µL/min/mg; Activity (HepG2 [11]): Non-Toxic; metabolised [12]: < 15%; Activity (HepG2 [13]): Non-Toxic; half-life [14]: 43 min; microsomal CLint [15]: 41 µL/min/mg; solubility kinetic [16]: 25 µg/mL (≈ 82.9 µM); half-life [17]: > 255 min
COc1ccc(-c2cnc(NC(=O)c3cnco3)n2C)cc1 | > 1 | > 100 µM | <50% | < 50% | > 100 µM | –
COc1ccc(-c2cnc(NC(=O)c3cccc(F)c3)n2C)cc1 | – | > 100 µM | <50% | < 50% | > 100 µM | –
COc1ccc(-c2cnc(NC(=O)c3ccn[nH]3)n2C)cc1 | > 1 | > 100 µM | <50% | < 50% | > 100 µM | –
COc1ccc(-c2cnc(NC(=O)c3ccccc3F)n2C)cc1 | > 1 | > 100 µM | <50% | < 50% | > 100 µM | –
COc1ccc(-c2noc(NC(=O)c3ccc(F)cc3)c2C)cc1 | > 1 | > 100 µM | <50% | < 50% | > 100 µM | –
COc1ccc(-c2cnc(NC(C)=O)n2C)cc1 | > 1 | > 100 µM | <50% | < 50% | > 100 µM | –
COc1ccc(-c2cnc(NC(=O)c3ccccc3)n2C)cc1 | > 3.6 | 28 µM | – | < 50% | > 100 µM | solubility [1]: Insoluble
Cn1c(-c2ccc(F)cc2)cnc1NC(=O)c1ccc(F)cc1 | > 1 | > 100 µM | <50% | < 50% | > 100 µM | –
COc1ccc(-c2cnc(NC(=O)c3cnc[nH]3)n2C)cc1 | > 1 | > 100 µM | <50% | < 50% | > 100 µM | –
COc1ccc(-c2cnc(NC(=O)c3cccc(C#N)c3)n2C)cc1 | > 1 | > 100 µM | <50% | < 50% | > 100 µM | –
Cn1c(-c2ccccc2)cnc1NC(=O)c1ccc(F)cc1 | > 2.8 | 36 µM | – | < 50% | > 100 µM | solubility kinetic [7]: 25 µg/mL (≈ 84.7 µM); solubility kinetic [16]: 25 µg/mL (≈ 84.7 µM)
COc1ccc(-c2cnc(NC(=O)c3ccc(F)cc3)n2C)cc1 | > 8.3 | – | – | < 50% | ≥ 50 µM | CC50 [18]: 100 µM; solubility kinetic [7]: 12.5 µg/mL (≈ 38.4 µM); IC50 (Leishmania donovani [19]): 3.2 µM; microsomal CLint [10]: 30 µL/min/mg; logP [20]: 3.6; half-life [14]: 4 min; microsomal CLint [15]: 396 µL/min/mg; solubility kinetic [16]: < 1.6 µg/mL; half-life [17]: 59 min
COc1ccc(-c2cnc(NC(=O)c3ccc(C#N)cc3)n2C)cc1 | > 1 | > 100 µM | <50% | < 50% | > 100 µM | –
COc1ccc(-c2nc3ncc(-c4ccc(F)cc4)cc3[nH]2)cc1 | > 1 | > 100 µM | <50% | < 50% | > 100 µM | solubility [21]: Insoluble
COc1ccc(-c2cnc(NC(=O)c3ccno3)n2C)cc1 | > 1 | > 100 µM | – | < 50% | > 100 µM | –
COc1ccc2nc(NC(=O)c3ccc(F)cc3)n(C)c2c1 | > 2.3 | 44 µM | – | < 50% | > 100 µM | –
COc1ccc(-c2cnc(NC(=O)C3CCCC3)n2C)cc1 | > 1.2 | 83 µM | – | < 50% | > 100 µM | –

Structure (SMILES) | selectivity ratio [2] | IC50 (Leishmania donovani [3]) | Activity (Leishmania donovani [4]) | inhibition at 100 µM [5] | CC50 [6] | other results
COc1ccc2c(c1)nc(NC(=O)c1ccc(F)cc1)n2C | > 2.6 | 38 µM | – | < 50% | > 100 µM | –
COc1ccc(-c2cnc(NC(=O)c3ccc(F)cc3)n2Cc2ccccc2)cc1 | 1.4 | > 100 µM | – | < 50% | > 100 µM | –
COc1ccc(-c2cnc(NC(=O)c3ccccc3C)n2C)cc1 | > 1.5 | 65 µM | – | < 50% | > 100 µM | –
O=C(Nc1ncc(-c2ccccc2)o1)c1ccc(F)cc1 | 15 | 1.1 µM | – | – | 17 µM | solubility kinetic [7]: 25 µg/mL (≈ 88.6 µM); half-life [22]: 5 min; microsomal CLint [10]: 90 µL/min/mg; microsomal CLint [23]: 352 µL/min/mg; solubility kinetic [16]: 6.3 µg/mL (≈ 22.3 µM); half-life [17]: 19 min
COc1ccc(-c2cnc(NC(=O)C3CCNCC3)n2C)cc1 | > 1 | > 100 µM | <50% | < 50% | > 100 µM | –
COc1ccc(-c2cnc(NC(=O)c3cccc(C)c3)n2C)cc1 | > 1 | > 100 µM | – | < 50% | > 100 µM | solubility [1]: Insoluble
COc1ccc(-c2ccc(NC(=O)c3ccc(F)cc3)nc2)cc1 | > 1 | > 100 µM | <50% | < 50% | > 100 µM | solubility [1]: Insoluble
COc1ccc(-c2cnc(NC(=O)c3ccc(F)cc3)n2C2CCCC2)cc1 | > 1 | 35 µM | – | < 50% | > 100 µM | –
COc1ccc(-c2cnc(NC(=O)c3ccc([N+](=O)[O-])cc3)n2C)cc1 | > 1 | > 100 µM | <50% | < 50% | > 100 µM | –
COc1ccc(-c2cnc(NC(=O)c3ccccc3C#N)n2C)cc1 | > 7.1 | 14 µM | – | < 50% | > 100 µM | –
COc1ccc(-c2cnc(NC(=O)c3cc(-c4ccccn4)n[nH]3)n2C)cc1 | > 19 | – | – | < 50% | ≥ 50 µM | CC50 [18]: 100 µM; IC50 (Leishmania donovani [19]): 4 µM; logP [20]: 3.2
COc1ccc(-c2cnc(NC(=O)Cc3ccccc3)n2C)cc1 | > 4 | 25 µM | – | < 50% | > 100 µM | –
COc1ccc(-c2cnc3nc(-c4ccc(F)cc4)[nH]c3c2)cc1 | > 1 | > 100 µM | <50% | < 50% | > 100 µM | solubility [21]: Insoluble
CCCCn1c(-c2ccc(OC)cc2)cnc1NC(=O)c1ccc(F)cc1 | > 5.6 | > 100 µM | <50% | < 50% | > 100 µM | –
COc1ccc(-c2cnc(NC(=O)c3ncc[nH]3)n2C)cc1 | > 9.1 | 11 µM | <50% | < 50% | > 100 µM | solubility kinetic [7]: > 100 µg/mL; microsomal CLint [10]: < 7 µL/min/mg; metabolised [12]: < 15%; half-life [14]: 3 min; microsomal CLint [15]: 511 µL/min/mg; solubility kinetic [16]: 6.3 µg/mL (≈ 21.2 µM); half-life [17]: > 255 min
Cn1c(-c2ccccc2)cnc1NC(=O)c1ncc[nH]1 | > 16 | 6.4 µM | – | < 50% | > 100 µM | microsomal CLint [10]: 20 µL/min/mg; half-life [14]: < 2 min; microsomal CLint [15]: > 866 µL/min/mg; Stability [24]: Unstable; half-life [17]: 88 min
Cn1c(-c2cccc(Cl)c2)cnc1NC(=O)c1ncc[nH]1 | 74 | 0.74 µM | – | – | 55 µM | solubility kinetic [7]: 12.5 µg/mL (≈ 41.4 µM); Activity (HepG2 [8]): Non-Toxic; CC50 [25]: 17 µM; microsomal CLint [10]: 8 µL/min/mg; Activity (HepG2 [11]): Non-Toxic; metabolised [12]: < 15%; Activity (HepG2 [13]): Non-Toxic; half-life [14]: 82 min; microsomal CLint [15]: 21 µL/min/mg; solubility kinetic [16]: 3.1 µg/mL (≈ 10.3 µM); half-life [17]: 229 min
COc1ccc(-c2cnc(NC(=O)c3ccc(F)cc3)[nH]2)cc1 | > 8.3 | 38 µM | – | < 50% | > 100 µM | –
COc1ccc(-c2cnc(NC(=O)c3cccc(Br)c3)n2C)cc1 | > 1 | > 100 µM | – | < 50% | > 100 µM | –
CCCC(=O)Nc1ncc(-c2ccc(OC)cc2)n1C | > 1 | > 100 µM | <50% | < 50% | > 100 µM | –
